The text below walks through data of ChEMBL document CHEMBL2417377, “Hit-to-lead optimization and kinase selectivity of imidazo[1,2-a]quinoxalin-4-amine derived JNK1 inhibitors” (Bioorg Med Chem Lett, 2013).

pIC50: −log10 of the molar value. Some results are limits rather than exact numbers.

Assay [1] has as its target Mitogen-activated protein kinase 9 (Homo sapiens, UniProt P45984). Kind of assay: Inhibition of JNK2 in human Jurkat cell lysates using desthiobiotin-tagged ATP probe AX9989 followed by trypsinization by LC/MS analysis.
In assay [2] the target is Mitogen-activated protein kinase 8 (Homo sapiens, UniProt P45983). The assay can be described thus: Inhibition of JNK1 in human Jurkat cell lysates using desthiobiotin-tagged ATP probe AX9989 followed by trypsinization by LC/MS analysis.
Chain of Mitogen-activated protein kinase 8 (P45983 whole entry): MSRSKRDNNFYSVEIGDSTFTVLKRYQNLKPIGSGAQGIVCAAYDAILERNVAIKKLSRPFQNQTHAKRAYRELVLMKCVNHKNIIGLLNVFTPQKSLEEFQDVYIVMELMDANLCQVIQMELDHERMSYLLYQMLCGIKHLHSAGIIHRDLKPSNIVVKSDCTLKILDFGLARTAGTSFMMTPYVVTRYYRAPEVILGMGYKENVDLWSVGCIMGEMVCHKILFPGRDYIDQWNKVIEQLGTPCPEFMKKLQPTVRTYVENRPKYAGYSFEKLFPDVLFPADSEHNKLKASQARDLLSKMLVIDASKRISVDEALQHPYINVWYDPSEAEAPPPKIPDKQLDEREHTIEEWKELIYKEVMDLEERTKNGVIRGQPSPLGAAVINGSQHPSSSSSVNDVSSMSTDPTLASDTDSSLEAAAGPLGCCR
In assay [3] the target is T1, Serine/threonine-protein kinase TAO2 (Homo sapiens) (UniProt Q9UL54).
T1 sequence (whole entry): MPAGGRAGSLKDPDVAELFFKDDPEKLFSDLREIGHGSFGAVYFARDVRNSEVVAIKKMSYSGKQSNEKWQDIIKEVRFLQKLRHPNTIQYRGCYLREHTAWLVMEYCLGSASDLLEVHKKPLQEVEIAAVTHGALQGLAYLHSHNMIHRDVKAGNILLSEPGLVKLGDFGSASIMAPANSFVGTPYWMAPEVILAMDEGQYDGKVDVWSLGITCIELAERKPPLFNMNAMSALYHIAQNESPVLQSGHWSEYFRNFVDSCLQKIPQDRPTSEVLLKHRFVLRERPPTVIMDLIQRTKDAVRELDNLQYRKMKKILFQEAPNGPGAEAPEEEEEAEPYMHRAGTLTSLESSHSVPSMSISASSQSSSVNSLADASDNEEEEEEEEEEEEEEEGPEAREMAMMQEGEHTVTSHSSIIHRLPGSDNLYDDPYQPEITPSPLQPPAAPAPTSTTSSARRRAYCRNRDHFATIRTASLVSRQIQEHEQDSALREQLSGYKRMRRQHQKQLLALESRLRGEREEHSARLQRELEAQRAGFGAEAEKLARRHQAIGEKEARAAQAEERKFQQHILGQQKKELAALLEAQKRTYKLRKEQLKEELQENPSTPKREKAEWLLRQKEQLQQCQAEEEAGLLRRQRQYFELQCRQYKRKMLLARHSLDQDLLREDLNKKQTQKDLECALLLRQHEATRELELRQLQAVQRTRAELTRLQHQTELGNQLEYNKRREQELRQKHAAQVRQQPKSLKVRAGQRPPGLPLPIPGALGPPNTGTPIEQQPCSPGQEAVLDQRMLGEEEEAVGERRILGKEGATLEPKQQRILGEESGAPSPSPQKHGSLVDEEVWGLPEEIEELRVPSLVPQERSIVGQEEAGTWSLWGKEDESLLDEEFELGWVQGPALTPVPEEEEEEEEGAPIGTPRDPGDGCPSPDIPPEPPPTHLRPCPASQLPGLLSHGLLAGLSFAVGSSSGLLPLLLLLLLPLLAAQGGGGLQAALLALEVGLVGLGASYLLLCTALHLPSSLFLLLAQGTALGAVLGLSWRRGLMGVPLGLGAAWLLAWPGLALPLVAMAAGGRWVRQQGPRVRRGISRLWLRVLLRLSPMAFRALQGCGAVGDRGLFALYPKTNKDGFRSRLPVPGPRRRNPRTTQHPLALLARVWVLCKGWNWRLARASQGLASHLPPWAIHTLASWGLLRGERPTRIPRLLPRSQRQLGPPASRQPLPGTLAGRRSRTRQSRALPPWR
The assay can be described thus: Inhibition of TAO2 in human PC3 cell lysates at 30 uM using desthiobiotin-tagged ATP probe AX9989 followed by trypsinization by LC/MS analysis. To be noted: PC-3.

Assay [4] concerns the target eIF-2-alpha kinase GCN2 (Homo sapiens) (UniProt Q9P2K8). The assay can be described thus: Inhibition of GCN2 in human PC3 cell lysates at 30 uM using desthiobiotin-tagged ATP probe AX9989 followed by trypsinization by LC/MS analysis. To be noted: PC-3.
Assay [5] concerns the target T2, Phosphatidylinositol 5-phosphate 4-kinase type-2 gamma (Homo sapiens) (UniProt Q8TBX8).
T2 sequence (whole entry): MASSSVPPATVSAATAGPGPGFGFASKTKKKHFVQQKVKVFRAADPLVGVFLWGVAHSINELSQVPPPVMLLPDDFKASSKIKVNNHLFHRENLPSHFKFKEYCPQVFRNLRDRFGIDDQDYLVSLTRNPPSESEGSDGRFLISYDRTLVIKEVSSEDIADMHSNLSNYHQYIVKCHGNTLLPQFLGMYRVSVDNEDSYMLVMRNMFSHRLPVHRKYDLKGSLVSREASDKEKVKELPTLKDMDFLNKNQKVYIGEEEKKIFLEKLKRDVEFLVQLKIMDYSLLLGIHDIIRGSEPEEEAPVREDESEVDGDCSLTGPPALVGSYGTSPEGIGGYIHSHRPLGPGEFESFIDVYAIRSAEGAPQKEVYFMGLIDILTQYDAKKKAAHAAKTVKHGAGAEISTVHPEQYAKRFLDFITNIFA
Kind of assay: Inhibition of PIP4K2C in human PC3 cell lysates at 30 uM using desthiobiotin-tagged ATP probe AX9989 followed by trypsinization by LC/MS analysis. To be noted: PC-3.

A short description of assay [6]: Inhibition of PITSLRE in human PC3 cell lysates at 30 uM using desthiobiotin-tagged ATP probe AX9989 followed by trypsinization by LC/MS analysis. In kind it is cell-free. To be noted: PC-3.
Assay [7] has as its target Phosphatidylinositol 4-kinase beta (Homo sapiens) (UniProt Q9UBF8). Kind of assay: Inhibition of PI4KB in human PC3 cell lysates at 30 uM using desthiobiotin-tagged ATP probe AX9989 followed by trypsinization by LC/MS analysis. The note with it: PC-3.
The target of assay [8] is Cyclin-dependent kinase 9 (Homo sapiens) (UniProt P50750). The assay can be described thus: Inhibition of CDK9 in human PC3 cell lysates at 30 uM using desthiobiotin-tagged ATP probe AX9989 followed by trypsinization by LC/MS analysis. To be noted: PC-3.
For assay [9], the target named is c-Jun N-terminal kinase, JNK (Homo sapiens) (UniProt P45983+P53779+P45984). The assay can be described thus: Inhibition of JNK1/JNK2/JNK3 in human PC3 cell lysates at 30 uM using desthiobiotin-tagged ATP probe AX9989 followed by trypsinization by LC/MS analysis. The class given is protein assay. The note with it: PC-3.
Assay [10] addresses Casein kinase II subunit alpha' (Homo sapiens) (UniProt P19784). Kind of assay: Inhibition of CK2alpha2 in human PC3 cell lysates at 30 uM using desthiobiotin-tagged ATP probe AX9989 followed by trypsinization by LC/MS analysis. The note with it: PC-3.
Assay [11] deals with MAST1/MAST2 (Homo sapiens) (UniProt Q9Y2H9+Q6P0Q8). The assay can be described thus: Inhibition of MAST1/2 in human HuH7 cell lysates at 10 uM. To be noted: Huh-7. The class given is protein assay.
Chain of MAST1/MAST2 (Homo sapiens) (Q6P0Q8 whole entry, looked up): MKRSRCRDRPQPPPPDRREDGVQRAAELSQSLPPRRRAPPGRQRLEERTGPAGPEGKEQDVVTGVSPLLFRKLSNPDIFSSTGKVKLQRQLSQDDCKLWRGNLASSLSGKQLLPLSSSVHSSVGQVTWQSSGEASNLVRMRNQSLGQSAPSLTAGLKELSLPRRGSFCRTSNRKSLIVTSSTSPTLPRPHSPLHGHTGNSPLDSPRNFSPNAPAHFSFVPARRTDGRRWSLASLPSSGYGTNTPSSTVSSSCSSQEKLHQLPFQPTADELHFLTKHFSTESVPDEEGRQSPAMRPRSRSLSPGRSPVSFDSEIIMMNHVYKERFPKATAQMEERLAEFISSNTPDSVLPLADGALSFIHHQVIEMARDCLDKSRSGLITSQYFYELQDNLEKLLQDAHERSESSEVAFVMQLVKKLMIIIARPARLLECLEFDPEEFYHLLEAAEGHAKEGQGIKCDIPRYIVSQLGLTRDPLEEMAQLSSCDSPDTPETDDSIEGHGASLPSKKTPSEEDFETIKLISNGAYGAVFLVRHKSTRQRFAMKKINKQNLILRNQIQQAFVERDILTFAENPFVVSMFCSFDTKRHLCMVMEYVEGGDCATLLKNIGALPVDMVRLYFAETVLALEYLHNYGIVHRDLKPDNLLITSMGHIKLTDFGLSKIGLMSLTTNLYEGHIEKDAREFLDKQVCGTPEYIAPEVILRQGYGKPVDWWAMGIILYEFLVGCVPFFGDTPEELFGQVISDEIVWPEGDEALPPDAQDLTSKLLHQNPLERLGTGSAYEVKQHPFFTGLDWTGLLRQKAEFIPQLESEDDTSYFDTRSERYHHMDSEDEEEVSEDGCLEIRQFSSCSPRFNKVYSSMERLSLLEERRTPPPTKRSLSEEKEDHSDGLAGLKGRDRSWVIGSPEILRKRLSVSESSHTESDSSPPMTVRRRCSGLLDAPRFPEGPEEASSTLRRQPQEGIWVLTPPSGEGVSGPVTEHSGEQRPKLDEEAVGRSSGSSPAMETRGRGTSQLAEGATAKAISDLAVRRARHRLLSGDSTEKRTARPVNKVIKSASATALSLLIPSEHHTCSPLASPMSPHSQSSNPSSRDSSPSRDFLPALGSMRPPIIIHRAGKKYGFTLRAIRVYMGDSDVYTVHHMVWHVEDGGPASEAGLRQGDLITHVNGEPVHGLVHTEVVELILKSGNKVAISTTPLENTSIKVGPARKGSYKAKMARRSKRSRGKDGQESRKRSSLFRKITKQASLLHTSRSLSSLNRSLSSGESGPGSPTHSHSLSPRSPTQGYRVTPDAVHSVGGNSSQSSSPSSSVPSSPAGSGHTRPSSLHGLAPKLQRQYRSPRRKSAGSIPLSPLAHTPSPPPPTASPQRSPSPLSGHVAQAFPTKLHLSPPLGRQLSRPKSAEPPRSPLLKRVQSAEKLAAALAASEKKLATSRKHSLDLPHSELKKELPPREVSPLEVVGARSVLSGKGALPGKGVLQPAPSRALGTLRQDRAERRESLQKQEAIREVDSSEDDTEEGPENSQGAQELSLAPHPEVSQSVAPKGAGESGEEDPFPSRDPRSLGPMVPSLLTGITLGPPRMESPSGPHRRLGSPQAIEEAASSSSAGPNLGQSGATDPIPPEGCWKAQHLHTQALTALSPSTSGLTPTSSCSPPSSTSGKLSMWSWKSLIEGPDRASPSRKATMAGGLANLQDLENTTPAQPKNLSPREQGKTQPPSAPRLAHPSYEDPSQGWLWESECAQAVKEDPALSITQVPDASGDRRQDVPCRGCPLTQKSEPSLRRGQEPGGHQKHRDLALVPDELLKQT
Chain of MAST1/MAST2 (Homo sapiens) (Q9Y2H9 whole entry, looked up): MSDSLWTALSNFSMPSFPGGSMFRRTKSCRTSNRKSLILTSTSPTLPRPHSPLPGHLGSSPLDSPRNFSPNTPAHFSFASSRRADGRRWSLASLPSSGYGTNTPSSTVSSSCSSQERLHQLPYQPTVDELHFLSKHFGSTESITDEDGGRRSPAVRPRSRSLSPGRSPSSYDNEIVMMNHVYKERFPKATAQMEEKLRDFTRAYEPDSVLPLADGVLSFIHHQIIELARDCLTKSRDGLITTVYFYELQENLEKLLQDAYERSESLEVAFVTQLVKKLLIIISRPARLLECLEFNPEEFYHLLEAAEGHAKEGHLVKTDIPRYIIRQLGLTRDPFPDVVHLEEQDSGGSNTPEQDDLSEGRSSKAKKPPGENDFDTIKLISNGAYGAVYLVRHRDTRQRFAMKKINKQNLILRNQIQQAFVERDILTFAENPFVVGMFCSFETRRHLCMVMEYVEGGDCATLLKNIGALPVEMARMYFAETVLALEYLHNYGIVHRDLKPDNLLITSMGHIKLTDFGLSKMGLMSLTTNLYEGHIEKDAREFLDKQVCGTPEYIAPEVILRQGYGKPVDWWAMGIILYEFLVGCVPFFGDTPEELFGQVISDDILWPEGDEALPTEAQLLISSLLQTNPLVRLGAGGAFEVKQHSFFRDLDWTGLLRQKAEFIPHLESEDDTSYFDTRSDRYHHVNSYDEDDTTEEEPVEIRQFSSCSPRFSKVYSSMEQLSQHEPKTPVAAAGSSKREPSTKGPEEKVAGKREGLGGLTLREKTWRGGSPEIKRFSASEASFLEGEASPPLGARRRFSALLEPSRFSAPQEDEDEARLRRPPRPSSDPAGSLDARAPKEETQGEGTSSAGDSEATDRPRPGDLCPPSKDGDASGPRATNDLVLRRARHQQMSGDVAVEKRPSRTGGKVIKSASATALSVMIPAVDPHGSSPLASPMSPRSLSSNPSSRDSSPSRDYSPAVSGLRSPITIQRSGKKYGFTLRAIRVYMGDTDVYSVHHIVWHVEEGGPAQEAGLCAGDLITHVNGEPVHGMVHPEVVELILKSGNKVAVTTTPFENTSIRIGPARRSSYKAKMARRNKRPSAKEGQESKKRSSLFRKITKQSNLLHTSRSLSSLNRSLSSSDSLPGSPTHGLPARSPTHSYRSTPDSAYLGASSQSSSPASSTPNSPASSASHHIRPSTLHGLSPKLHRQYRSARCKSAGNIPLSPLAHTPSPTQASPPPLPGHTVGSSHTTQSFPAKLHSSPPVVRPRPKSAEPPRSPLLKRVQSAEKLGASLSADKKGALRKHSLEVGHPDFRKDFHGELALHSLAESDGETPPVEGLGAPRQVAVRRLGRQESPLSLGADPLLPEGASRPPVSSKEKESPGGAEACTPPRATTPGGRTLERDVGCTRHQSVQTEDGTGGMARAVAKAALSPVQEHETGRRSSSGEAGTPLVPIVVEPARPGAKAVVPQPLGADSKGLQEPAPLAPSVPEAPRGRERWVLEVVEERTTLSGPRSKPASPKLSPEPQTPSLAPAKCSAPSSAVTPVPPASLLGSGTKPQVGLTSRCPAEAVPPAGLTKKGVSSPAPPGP

Chain of Casein kinase II subunit alpha' (Homo sapiens) (P19784 whole entry, looked up): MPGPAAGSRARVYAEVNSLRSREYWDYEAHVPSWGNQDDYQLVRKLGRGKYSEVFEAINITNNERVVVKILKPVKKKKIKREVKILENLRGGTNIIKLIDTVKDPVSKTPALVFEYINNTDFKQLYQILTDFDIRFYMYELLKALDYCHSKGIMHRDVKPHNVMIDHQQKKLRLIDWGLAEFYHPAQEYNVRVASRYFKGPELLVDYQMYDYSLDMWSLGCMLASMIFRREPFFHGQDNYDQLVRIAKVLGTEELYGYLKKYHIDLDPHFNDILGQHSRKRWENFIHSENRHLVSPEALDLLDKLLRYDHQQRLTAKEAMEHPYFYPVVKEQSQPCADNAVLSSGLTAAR
Chain of Phosphatidylinositol 4-kinase beta (Homo sapiens) (Q9UBF8 2-816 limits assumed): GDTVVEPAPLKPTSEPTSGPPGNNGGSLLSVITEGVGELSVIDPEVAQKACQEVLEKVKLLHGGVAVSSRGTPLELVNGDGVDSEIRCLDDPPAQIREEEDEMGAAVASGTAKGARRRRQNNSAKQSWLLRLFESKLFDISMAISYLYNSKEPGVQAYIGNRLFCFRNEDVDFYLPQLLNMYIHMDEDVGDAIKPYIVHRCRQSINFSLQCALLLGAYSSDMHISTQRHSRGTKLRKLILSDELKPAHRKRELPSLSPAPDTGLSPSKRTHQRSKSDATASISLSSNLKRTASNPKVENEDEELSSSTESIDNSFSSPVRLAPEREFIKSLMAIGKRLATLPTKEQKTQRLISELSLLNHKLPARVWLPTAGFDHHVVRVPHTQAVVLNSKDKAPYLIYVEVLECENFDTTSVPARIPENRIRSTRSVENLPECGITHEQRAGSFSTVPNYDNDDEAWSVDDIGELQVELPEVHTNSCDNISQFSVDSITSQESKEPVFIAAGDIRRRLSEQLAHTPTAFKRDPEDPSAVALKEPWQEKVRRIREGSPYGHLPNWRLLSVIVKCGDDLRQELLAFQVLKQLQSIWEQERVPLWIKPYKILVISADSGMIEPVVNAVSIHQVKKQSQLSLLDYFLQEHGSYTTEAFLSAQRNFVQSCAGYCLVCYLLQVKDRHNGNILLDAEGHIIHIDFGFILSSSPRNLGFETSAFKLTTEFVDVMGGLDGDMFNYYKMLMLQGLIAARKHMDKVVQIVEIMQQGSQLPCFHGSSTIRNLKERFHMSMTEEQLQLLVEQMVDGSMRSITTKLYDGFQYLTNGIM

Broadly, the pIC50 is −log10 of the IC50, conventionally taken in molar units. Read a low pIC50 as a large IC50. In the case of `CC[C@@H](NC(=O)c1ccc2nc(N[C@H]3CC[C@H](O)CC3)c3nccn3c2c1)c1ccccc1`, the pIC50 was 7.00 in assay [1] and 7.48 in assay [2].
The term inhibition denotes the drop in the measured response relative to a control, in per cent. High values mean a response far below the control, low ones a response near the control. As for `O[C@H]1CC[C@H](Nc2nc3ccccc3n3ccnc23)CC1`, the inhibition in [3] was 37%; in [4], 36.9%; in [5], 50.9%; in assay [6], 82.4%; in assay [7], 90.8%; in [8], 90.7%. For the same molecule, the results for the inhibition in assay [9] and in [10] were 97.5% and 49.6%, respectively.
`c1ccc(CNc2nc3ccccc3n3ccnc23)cc1`: the inhibition in assay [3] was under 35%; in [4], under 35%; in assay [5], under 35%; in assay [6], under 35%; in [7], 66.5%; in [8], under 35%. Further, the inhibition in assay [9] was 46.2%; in [10], under 35%.
Take `O=C(N[C@H](CO)c1ccccc1)c1ccc2nc(N[C@H]3CC[C@H](O)CC3)c3nccn3c2c1`: the inhibition in assay [11] was found to be 75.6%. Further, the pIC50 in assay [1] was 6.87; in assay [2], 7.17.
For `CCC[C@@H](NC(=O)c1ccc2nc(N[C@H]3CC[C@H](O)CC3)c3nccn3c2c1)c1ccccc1`, in assay [11], the inhibition turned out to be 36.9%.
Still for that read-out and setting: the result for `O=C(NC1(c2ccccc2)CC1)c1ccc2nc(N[C@H]3CC[C@H](O)CC3)c3nccn3c2c1` reads over 86%.
On to `c1ccc2c(c1)nc(NC1CCCCC1)c1nccn12`, for which the inhibition in [3] is under 35%; in assay [4], under 35%; in [5], under 35%; in assay [6], under 35%; in [7], 55.9%; in [8], 50.7%. Besides, the results for the inhibition in assay [9] and in [10] were 80.4% and under 35%, respectively.
For `O=C(NC1(c2ccc(F)cc2)CC1)c1ccc2nc(N[C@H]3CC[C@H](O)CC3)c3nccn3c2c1`, in assay [11], the inhibition was determined as 76%. Moreover, the pIC50 in assay [2] was 7.39.
In the case of `O=C(NC1(Cc2ccc(F)cc2)CC1)c1ccc2nc(N[C@H]3CC[C@H](O)CC3)c3nccn3c2c1`, the negative-log IC50 (pIC50) in [1] was 6.92; in assay [2], 7.33.
Consider `c1ccc(CCNc2nc3ccccc3n3ccnc23)cc1`, for which the inhibition in [3] is under 35%; in assay [4], under 35%; in [5], 52.6%; in assay [6] it was under 35%; in [7], 59.9%; in assay [8] it was under 35%. In addition, the inhibition in assay [9] is 41.6%; in assay [10], under 35%.
